Measured values from paper PMC12124432, “Antimicrobial Peptide‐Peptoid Macrocycles from the Polymyxin B2 Chemical Space” (Angewandte Chemie (International Ed. in English), 2025).
Values after ≈ are worked out from the molar mass of the structure shown. Bridge positions count the residues as written; N and C are the ends. Square brackets hold non-standard residues; d marks the D form. Peptide text beside a SMILES is read from it. * marks the point of attachment. N(3-phenylpropyl)Gly = O=C(O)CNCCCc1ccccc1; Gly(NCH2CH2Ph) = O=C(O)CNCCc1ccccc1; Gly(N-2-aminoethyl) = NCCNCC(=O)O; Gly(N(CH2)3NH2) = NCCCNCC(=O)O; Gly(N-cPent) = O=C(O)CNC1CCCC1; Heptanoyl = CCCCCCC(=O)*; Nphe = O=C(O)CNCc1ccccc1; Octanoyl = CCCCCCCC(=O)*; Dab = NCC[C@H](N)C(=O)O; NPrGly = CCCNCC(=O)O

Legend:
P. aeruginosa PAO1 [1] = assay type: cell-based, Pseudomonas aeruginosa; conditions: for Effect of salt on antibacterial activity against P. aeruginosa: NaCl 0-300 mM in 12.5% Mueller-Hinton broth at pH 8.5; for MIC on P. aeruginosa, 0 mM NaCl / MIC on P. aeruginosa, 100 mM NaCl / MIC on P. aeruginosa, 200 mM NaCl / MIC on P. aeruginosa, 300 mM NaCl: PAO1, pH 8.5
Description: Minimal Inhibitory Concentration (MIC)
Antimicrobial activity was assayed for all the peptide-peptoids against P. aeruginosa PAO1, K. pneumoniae NCTC418, E. coli W3110, A. baumannii ATCC 19606, methicillin-resistant S. aureus COL (MRSA) and for selected peptides on P. aeruginosa PA14, as well as the clinical isolates ZEM-1A and ZEM9A, K. pneumoniae OXA-48, Enterobacter cloacae, Stenotrophomonas maltophilia and Staphylococus epidermidis. To determine the Minimal Inhibitory Concentration (MIC), Broth Microdilution method was used. A colony of bacteria was picked and grown in LB medium overnight at 37 °C. The next day, the culture was then regrown in LB medium to log phase (OD600 = 0.6 to 0.8), which lasted approximately 4 hours, and diluted to an OD600 of 0.022 in the desired medium (full MH or 12.5% MH).
The compounds were prepared as stock solutions of 2 mg/mL in sterilized MilliQ deionized water and then diluted in the desired media (full MH or 12.5% MH) to reach the first concentration tested (32 μg/mL). The compounds were added to the first well of a 96-well sterile, round bottom microtiter plates in polystyrene (TPP®, untreated) and diluted serially by ½ in the desired media (full MH or 12.5% MH), to a final volume of 150 µL/well. To each well was finally added 4 µL of the diluted bacterial suspension (see above), corresponding to approximately 5×10^5 CFU. For each test, two columns of the plate were kept for sterility control (medium only), growth control (medium with bacterial inoculum, no compound). The positive control, Polymyxin B (starting with a concentration of 16 µg/mL) in MH medium with bacterial inoculums, was introduced in the two first lines of the plate. The plates were incubated at 37 °C for ca. 18 hours under static conditions. 15 µL of 3-(4,5-dimethylthiazol-2-yl)-2,5-diphenyltetrazolium bromide (MTT)[7] (1 mg/mL in sterilized MilliQ deionized water) were added to each well and the plates were incubated for 20-30 minutes at room temperature. The […]
minimal inhibitory concentration (MIC) was defined as the lowest concentration of the compound that inhibits the visible growth of the tested bacteria (yellow) with the unaided eye.
Minimal Hemolytic Concentration (MHC) […]
11. Minimal inhibitory in presence of salt
The same procedure as for the antibacterial activity measurements by minimal inhibitory concentration assay (MIC) was applied. The media, 12.5% Mueller-Hinton broth was this time supplemented with different salt concentrations (0, 100, 200 300 mM NaCl). The MIC activities were then determined against Pseudomonas aeruginosa PAO1 and Escherichia coli […]
Table S6. Minimal inhibitory concentration (MIC) on P. aeruginosa PAO1 as function of salt […]
All data, in μg/mL, measured against P. aeruginosa PAO1, with or without addition of salt (NaCl). The values were measured in dilute medium (12.5% MH) and at slightly basic pH (pH = 8.5), after incubation for 16-20 h at 37 °C. Values represent two different duplicate MIC determinations.

P. aeruginosa PAO1 [2] = assay: DiSC3(5) inner-membrane depolarization assay; assay type: cell-based, Pseudomonas aeruginosa; conditions: 2 µM DiSC3(5), mean ± SD, n = 3
Description: Outer Membrane (NPN) - E. coli
Figure S6. Outer membrane permeability assay with 10 μM NPN, on E. coli W3110.
13. DiSC3(5) Inner-Membrane Depolarization Assay
A single colony of P. aeruginosa PAO1 and E. coli W3110 was grown overnight with shaking […]
(150 rpm) in LB broth (5 mL) at 37 °C. 100 μL of the overnight culture was regrown in 10 […]
mL LB broth with shaking (200 rpm) to the exponential phase OD600 = 1 (10^9 CFU/mL).
Bacteria were washed once with HEPES buffer (5 mM HEPES, 5 mM glucose, pH 7.4) and […]
diluted to OD600 = 0.5. Stock solution of 10 mM of 3,3′ -Dipropylthiadicarbocyanine iodide […]
(DiSC3(5), purchased from Sigma) was prepared in DMSO. Stock solutions of 2 m g/mL of […]
the compounds were prepared in sterilized milli -Q water and diluted to the beginning […]
concentration of 128 μg/mL in 200 μL HEPES buffer. The diluted samples were added to the […]
first well of 96-well plates (black wells, flat bottom, BRAND ® GmbH Wertheim, Germany) […]
and diluted serially by 1/2. […]
DiSC3(5) in HEPES buffer. The plate was measured with a Tecan instrument Infinite M1000 […]
wavelength used was 610 nm ± 5 nm and the emission wavelength 660 nm ± 5 nm. The assay was measured in triplicate and repeated at least two times.[10,11] […]
Saturation determination. […] The fluorescence saturation of DsPMB with LPS was first determined, by titration (0.25 μM increments, up to 5 μM) of the DsPMB into a 3 μg/mL of LPS (10 mM Tris, 10 mM NaCl buffer, pH 7.4), at 37 °C. The fluorescence was recorded with a Jasco spectrofluorometer FP-8300, with the excitation at λex = 340 nm (5 nm slit width) and recorded from 420 to 650 nm. The fluorescence was recorded two minutes after each addition. Saturation was graphically determined, at a concentration of D sPMB ≈ 2.5 μM (λem = 485 nm). Each measurement was determined in triplicates.
Displacement assay. The displacement effect of the various peptides was determined by measuring the reduction of fluorescence intensity, at 37 °C. Initially, DsPMB (2.5 μM) was mixed with LPS (3 μg/mL) and let it react for 15 minutes before recording the fluorescence

## CCCCCCCC(=O)N(CCc1ccccc1)CC(=O)N[C@@H](CCCCN)C(=O)N[C@@H](CC(N)=O)C(=O)N[C@H]1CCNC(=O)[C@H](CCCCN)NC(=O)CN(CCCN)C(=O)[C@H](CCCCN)NC(=O)CN(CCC)C(=O)[C@H](CCCCN)NC1=O [EB12] (Octanoyl-[Gly(NCH2CH2Ph)]KN[Dab]K[NPrGly]K[Gly(N(CH2)3NH2)]K; lactam 4-C)
P. aeruginosa PAO1 [1]
  Effect of salt on antibacterial activity against P. aeruginosa: inhibited by high salt concentrations
  MIC on P. aeruginosa, 0 mM NaCl: 2 to 4 mg/L
  MIC on P. aeruginosa, 100 mM NaCl: 32 mg/L (≈ 26.1 µM)
  MIC on P. aeruginosa, 200 mM NaCl: > 64 mg/L
  MIC on P. aeruginosa, 300 mM NaCl: > 64 mg/L
P. aeruginosa PAO1 [2]
  Inner membrane depolarization (DiSC3(5)): induced a depolarization of the inner membrane like PMB2

## CCCCCCC(=O)N[C@H](C(=O)N(CCN)CC(=O)N(CCCc1ccccc1)CC(=O)N[C@H]1CCNC(=O)[C@H](CCCCN)NC(=O)CN(CCCN)C(=O)[C@H](CCCCN)NC(=O)CNC(=O)[C@H](CCCCN)NC1=O)C(C)C [EB13] (Heptanoyl-V[Gly(N-2-aminoethyl)][N(3-phenylpropyl)Gly][Dab]KGK[Gly(N(CH2)3NH2)]K; lactam 4-C)
P. aeruginosa PAO1 [1]
  Effect of salt on antibacterial activity against P. aeruginosa: inhibited by high salt concentrations
  MIC on P. aeruginosa, 0 mM NaCl: 4 mg/L (≈ 3.5 µM)
  MIC on P. aeruginosa, 100 mM NaCl: > 64 mg/L
  MIC on P. aeruginosa, 200 mM NaCl: > 64 mg/L
  MIC on P. aeruginosa, 300 mM NaCl: > 64 mg/L
P. aeruginosa PAO1 [2]
  Inner membrane depolarization (DiSC3(5)): induced a depolarization of the inner membrane like PMB2

## CCCCCCCC(=O)N[C@@H](CCCCN)C(=O)N(CC(=O)N[C@@H](CCCCN)C(=O)N[C@H]1CCNC(=O)[C@H](CCCCN)NC(=O)CN(C2CCCC2)C(=O)CN(CCN)C(=O)[C@H](CCCCN)NC(=O)[C@H](CC(N)=O)NC1=O)Cc1ccccc1 [EB21] (Octanoyl-K[Nphe]K[Dab]NK[Gly(N-2-aminoethyl)][Gly(N-cPent)]K; lactam 4-C)
P. aeruginosa PAO1 [1]
  Effect of salt on antibacterial activity against P. aeruginosa: inhibited by high salt concentrations
  MIC on P. aeruginosa, 0 mM NaCl: 4 mg/L (≈ 3.26 µM)
  MIC on P. aeruginosa, 100 mM NaCl: > 64 mg/L
  MIC on P. aeruginosa, 200 mM NaCl: > 64 mg/L
  MIC on P. aeruginosa, 300 mM NaCl: > 64 mg/L
P. aeruginosa PAO1 [2]
  Inner membrane depolarization (DiSC3(5)): induced a depolarization of the inner membrane like PMB2
